Assay [1] concerns protein synthesis in CEM cells. Nature of the assay: Antimetabolic activity: [4,5-3H]Leu incorporation (protein synthesis) in CEM cell cultures. The note with it: Homo sapiens, CCRF-CEM, ~20 h, TCA-insoluble material. It counts as cell-based. The text has this: (§1) A variety of compounds (2a, 3a, 4a with a cycloalkyl substituent directly attached to nitrogen atom, 2c, 3c, 4c with a cycloalkyl bound to nitrogen through a short spacer and 2e, 3e, 4e with an aromatic substituent) have been investigated on their inhibitory activity against DNA, RNA and protein synthesis in CEM cell cultures. The compounds were equally inhibitory to dThd (DNA synthesis), Urd (RNA synthesis) and Leu (protein synthesis) incorporation into TCA-insoluble cell material. The 2 series of compounds were least inhibitory whereas the 4 series were most inhibitory (IC50 in the lower micromolar range). Their antimetabolic IC50 values closely corresponded to their antiproliferative IC50 values. They also behaved as sorafenib in terms of antimetabolic potential (Table 3).
(§2) The procedures have been modified from previously described methods. Human CEM cells were seeded in 96-well microtiter plates at 10 × 10^4 cells/200 µL-well in the presence of serial dilutions of the tested compounds. Then, 0.25 µCi of [CH3-^3H]dThd (radiospecificity: 52 Ci/mmol) or 1 µCi of [5-^3H]Urd (radiospecificity: 26 Ci/mmol) or [4,5-^3H]Leu (radiospecificity: 160 Ci/mmol) were added and the drug-exposed tumour cell cultures further incubated at 37 °C for ~20 h. Then the content of each well was transfered to glass fiber discs (Wattman, GE Healthcare, Maidstone, UK), mounted on a manifold (Millipore, Billerica, MA, USA) and subsequently washed with PBS (to remove the radiolabel material that has not been incorporated in the cellular macromolecules), 10% and 5% trichoroacetic acid (TCA) (to precipitate DNA, RNA and proteins) and ethanol. Then, the radioactivity (TCA precipitate) associated with each disc was determined in a liquid scintillation counter (Packard, Palo Alto, CA, USA).

The subject of assay [2] is CEM (human lymphoma). Nature of the assay: Cytostatic activity, Coulter counter. The note with it: 72 h, cell number by Coulter counter; read-out: Tumour cell growth/IC50 CEM. It counts as cell-based. Here is the method:
(§3) The experiments were carried out on six human tumour and one murine cell lines, which are derived from five solid tumour types and two (one murine and one human) suspension tumour cell lines. The following cell lines were used: HCT 116 (colon carcinoma), SW 620 (colon carcinoma), MCF-7 (breast carcinoma), H 460 (lung carcinoma), L1210 (murine leukemia), CEM (human lymphoma) and HeLa (cervix carcinoma). […] Compounds 3d and 3e with a benzene ring in the amide moiety, exerted a somewhat stronger (but still rather poor) cytostatic effect (IC50 ≈ 20-90 µM). […] The compounds were also equally cytostatic against primary human embryonic lung (HEL) fibroblast cells (Table 2). The obtained data clearly point to the obligatory presence of the [4-chloro-3-(trifluoromethyl)phenyl]carbamoyl group being crucial for high potency. Also, the 4a–e series of compounds are far more lipophilic than the 2 and 3 series of compounds, which may be related to their increased cytostatic potential.
(§4) The cytostatic activity of the tested compounds against murine leukemia L1210, human cervix carcinoma HeLa, human embrionic lung (HEL) and T-lymphocyte CEM cells was determined with cells grown in suspension (L1210, CEM) or monolayers (HeLa, HEL) in 200 µL-wells of 96-well microtiter plates (initial cell number: 5–7.5 × 10^4 cells/well). After 48 (L1210) or 72 (CEM, HeLa, HEL) h, the tumour cell number was determined by the use of a Coulter counter.

The subject of assay [3] is primary human embryonic lung (HEL) fibroblast cells. Nature of the assay: Cytostatic activity, Coulter counter. It counts as cell-based. Particulars: 72 h, cell number by Coulter counter; primary fibroblasts. Here is the method:
as §3, §4

Assay [4] deals with L1210 (murine leukemia). Nature of the assay: Cytostatic activity, Coulter counter. In kind it is cell-based. The note with it: 48 h, cell number by Coulter counter; read-out: Tumour cell growth/IC50 L1210. Here is the method: as §3, §4
The subject of assay [5] is MCF-7 (breast carcinoma). Nature of the assay: Cytostatic activity, MTT assay. In kind it is cell-based, human. Particulars: 72 h, read-out: Tumour cell growth/IC50 MCF-7. Here is the method: as §3
(§5) HCT 116, SW 620, MCF-7, and H 460 cells were cultured as monolayers and maintained in Dulbecco’s modified Eagle medium (DMEM), supplemented with 10% fetal bovine serum (FBS), 2 mmol·L^–1 L-glutamine, 100 U·mL^–1 penicillin and 100 μg·mL^–1 streptomycin in a humidified atmosphere with 5% CO2 at 37 °C. The growth inhibition activity was assessed as described previously, according to the slightly modified procedure of the National Cancer Institute, Developmental Therapeutics Program. Briefly, the cells were seeded onto standard 96-well microtiter plates on day 0. The cell concentrations were adjusted according to the cell population doubling time (PDT): 3000 cells/well for HCT116 and SW 620 cell lines (PDT = 20–24 h) and 4,000 cells/well for MCF-7 cell lines (PDT = 33 h). Tested agents were then added in five consecutive 10-fold dilutions (10^–8 to 10^–4 mol·L^–1) and incubated for further 72 h. Working dilutions were freshly prepared on the day of testing. The solvent (DMSO) was also tested for eventual inhibitory activity by adjusting its concentration to be the same as in working concentrations (maximal concentration of DMSO was 0.25%). After 72 h of incubation, the cell growth rate was evaluated by performing the MTT assay (Promega) which detects dehydrogenase activity in viable cells. The absorbency (OD, optical density) was measured on a microplate reader at 570 nm. Each test point was performed in quadruplicate in at least three individual experiments. The results are expressed as IC50, which is the concentration necessary for 50% of inhibition. […] Each result is a mean value from three separate experiments.

The subject of assay [6] is HCT 116 (colon carcinoma). Nature of the assay: Cytostatic activity, MTT assay. In kind it is cell-based, human. The note with it: 72 h, read-out: Tumour cell growth/IC50 HCT 116. Here is the method: as §3, §5
Assay [7] relates to H 460 (lung carcinoma). Nature of the assay: Cytostatic activity, MTT assay. In kind it is cell-based, human. Particulars: 72 h, read-out: Tumour cell growth/IC50 H 460. Here is the method:
as §3, §5

The test system of assay [8] is SW 620 (colon carcinoma). Nature of the assay: Cytostatic activity, MTT assay. In kind it is cell-based, human. The note with it: 72 h, read-out: Tumour cell growth/IC50 SW 620. Here is the method:
as §3, §5

Assay [9] deals with RNA synthesis in CEM cells. Nature of the assay: Antimetabolic activity: [5-3H]Urd incorporation (RNA synthesis) in CEM cell cultures. In kind it is cell-based. Particulars: Homo sapiens, CCRF-CEM, ~20 h, TCA-insoluble material.
Source text: as §1, §2

In assay [10] the test system is HeLa (cervix carcinoma). Nature of the assay: Cytostatic activity, Coulter counter. It counts as cell-based, human. The note with it: 72 h, cell number by Coulter counter; read-out: Tumour cell growth/IC50 HeLa. Here is the method: as §3, §4
Assay [11] deals with DNA synthesis in CEM cells. Nature of the assay: Antimetabolic activity: [CH3-3H]dThd incorporation (DNA synthesis) in CEM cell cultures. Particulars: Homo sapiens, CCRF-CEM, ~20 h, TCA-insoluble material. It counts as cell-based.
Source text: as §1, §2

In assay [12] the test system is 23 cell lines. The arrangement: method as in PMID 20672370. The note with it: median over 23 cell lines; cited from earlier work.

Turning to `CNC(=O)c1cc(Oc2ccc(NC(=O)Nc3ccc(Cl)c(C(F)(F)F)c3)cc2)ccn1` [Sorafenib, 4-[4-[[4-chloro-3-(trifluoromethyl)phenyl]carbamoylamino]phenoxy]-N-methylpyridine-2-carboxamide], the IC50 in assay [1] came to 12 ± 7 µM; in assay [2], 3.4 ± 0.5 µM; in assay [3], 7.5 ± 0.7 µM; in assay [4], 4.1 µM; in assay [5] it was 3 ± 0.7 µM; in assay [6], 3 ± 0.8 µM. The IC50 in assay [7] was 3 ± 0.8 µM; in assay [8] it was 6 ± 1 µM; in [9] it was 7.1 ± 0.2 µM; in assay [10], 3.7 ± 0.6 µM; in assay [11] it was 8.6 ± 1.1 µM; in [12] it was 4.3 µM.
